This assay addresses T1, human β3 adrenergic receptor (Homo sapiens, UniProt P13945).
T1 construct: expressed in transfected cells; host or cells: DXB-11 Chinese hamster ovary (CHO) cell line, stably transfected (phd expression vector)
Description: whole cell receptor coupled c-AMP assay, human β3 receptor in CHO cells (EC50, Emax relative to isoproterenol). In kind it is cell-based. In short, it runs like this:
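Stably transfected DXB-11 CHO cells (20,000/well) were exposed to compound for 20 min at 37 °C in HBSS/HEPES buffer with 1 mM IBMX, pH 7.4. cAMP was measured by SPA. EC50 came from a four-parameter logistic fit, and Emax is the maximal response as a percentage of isoproterenol's.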

Where [1] appears, read: % intrinsic activity relative to isoproterenol maximal response, average of at least 3 runs, c-AMP in transfected CHO cells.
Setting [2] is: Emax ± standard error of the mean, average of at least 3 runs except where n = 1, compound tested in the isolated form listed.
[3] abbreviates: Emax ± SEM, average of at least 3 runs except as otherwise indicated, tested as the isolated form listed.

Molecules are shown by their SMILES.

T1 sequence (P13945 whole entry): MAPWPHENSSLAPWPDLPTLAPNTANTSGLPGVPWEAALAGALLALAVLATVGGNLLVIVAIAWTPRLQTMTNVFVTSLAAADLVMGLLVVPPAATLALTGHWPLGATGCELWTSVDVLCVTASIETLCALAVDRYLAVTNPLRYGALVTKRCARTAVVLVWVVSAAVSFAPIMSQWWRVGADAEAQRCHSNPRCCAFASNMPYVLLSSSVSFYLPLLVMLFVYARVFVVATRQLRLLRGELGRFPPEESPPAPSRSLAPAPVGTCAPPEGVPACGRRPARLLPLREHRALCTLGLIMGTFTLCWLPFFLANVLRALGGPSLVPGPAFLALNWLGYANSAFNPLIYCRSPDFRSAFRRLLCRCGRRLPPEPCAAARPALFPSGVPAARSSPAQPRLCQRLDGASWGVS

Consider `CC(C)(Cc1ccc(Oc2ncccc2C#N)cc1)NC[C@H](O)COc1ccccc1-c1ccc(Cl)s1.O=C(O)C(F)(F)F` [Example 414], for which the “Emax (%) ± SEM” value under setting [1] came to 65.7 ± 11.4%. Consider `CCOC(=O)c1ccc(Oc2ccc(CC(C)(C)NC[C@H](O)COc3ccccc3-c3ccno3)cc2)c(F)c1.O=C(O)C(F)(F)F` [Example 186], for which, under setting [2], the “Emax (%) ± SEM” value came out at 41.1 ± 8.2%. Same read-out and setting: with `CC(C)(Cc1ccc(Oc2ncccc2C(N)=O)cc1)NC[C@H](O)COc1ccccc1-c1nnco1` [Example 86] the figure was 64.6 ± 3.3%; with `COC(=O)c1ccc(Oc2ccc(CC(C)(C)NC[C@H](O)COc3ccccc3-c3ccn[nH]3)cc2)nc1` [Example 118], 29.5 n = 1%; with `CC(C)(Cc1ccc(Oc2ncccc2C#N)cc1)NC[C@H](O)COc1ccccc1-c1cccs1.Cl` [Example 51], 74.1 ± 3.3%.

As for `CC1(C)COC(c2ccccc2OC[C@@H](O)CNC(C)(C)Cc2ccc(Oc3ccc(C(N)=O)cn3)cc2)=N1` [Example 28], the “Emax (%) ± SEM” value under setting [2] is given as 83.4 ± 7.2%. Regarding `CCOC(=O)c1cccnc1Oc1ccc(CC(C)(C)NC[C@H](O)COc2ccccc2-c2ccn[nH]2)cc1` [Example 111], under setting [2], the “Emax (%) ± SEM” value came to 23.6 n = 1%. Turning to `CCOC(=O)c1ccc(Oc2ccc(CC(C)(C)NC[C@H](O)COc3ccccc3-c3nccs3)cc2)c(F)c1.O=C(O)C(F)(F)F` [Example 185], the “Emax (%) ± SEM” value under setting [2] was 45.1 ± 2.6%. The same measure, in the same setting: with `Cn1nccc1-c1ccccc1OC[C@@H](O)CNC(C)(C)Cc1ccc(Oc2ccc(C(N)=O)cn2)cc1` [Example 14] the figure was 16.9 n = 1%. As for `CC(C)(Cc1ccc(Oc2ccc(C(N)=O)cn2)cc1)NC[C@H](O)COc1ccccc1-c1ccsc1` [Example 379], the “Emax (%) ± SEM” value under setting [1] is 37.7 ± 1.6%. As to `CC(C)(Cc1ccc(Oc2ccc(C#N)cn2)cc1)NC[C@H](O)COc1ccccc1-c1cscn1.Cl` [Example 247], the “Emax (%) ± SEM” value under setting [2] was found to be 45.4 ± 3.4%. With `Cn1nccc1-c1ccccc1OC[C@@H](O)CNC(C)(C)Cc1ccc(Oc2ncccc2C#N)cc1` [Example 48], the “Emax (%) ± SEM” value under setting [2] is 14.4 n = 1%. The same measure, in the same setting: to `CC(C)(Cc1ccc(Oc2ncc(Cl)cc2Cl)cc1)NC[C@H](O)COc1ccccc1-c1cccs1.O=C(O)C(F)(F)F` [Example 173] belongs 87.9 ± 4.5%; to `CCOC(=O)c1ccc(Oc2ccc(CC(C)(C)NC[C@H](O)COc3ccccc3-c3cccs3)cc2)c(Cl)c1.O=C(O)C(F)(F)F` [Example 204], 67.6 ± 4.0%. On to `CC(C)(Cc1ccc(Oc2ccccc2C(N)=O)cc1)NC[C@H](O)COc1ccccc1-c1ncco1.O=C(O)C(F)(F)F` [Example 365], for which the “Emax (%) ± SEM” value under setting [3] is on record as 80.2 ± 5.6%. `CC(C)(Cc1ccc(Oc2ccc(C#N)cc2Cl)cc1)NC[C@H](O)COc1ccccc1-c1ccno1.O=C(O)C(F)(F)F` [Example 163]: the “Emax (%) ± SEM” value under setting [2] amounted to 44.6 ± 4.3%. `CC(=O)c1ccc(-c2ccccc2OC[C@@H](O)CNC(C)(C)Cc2ccc(Oc3cccnc3C#N)cc2)s1.Cl` [Example 424]: under setting [1], the “Emax (%) ± SEM” value was 71.2 ± 7.9%. On the same count and under the same terms, with `CC(C)(Cc1ccc(Oc2ncccc2C#N)cc1)NC[C@H](O)COc1c(F)cccc1-c1ccsc1.Cl` [Example 436] the figure was 57.5 ± 12.0%. `CCOC(=O)c1cccnc1Oc1ccc(CC(C)(C)NC[C@H](O)COc2ccccc2-c2ccno2)cc1.O=C(O)C(F)(F)F` [Example 112]: the “Emax (%) ± SEM” value under setting [2] is given as 56.9 ± 8.6%.

In the case of `CC(C)(Cc1ccc(Oc2ccc(S(N)(=O)=O)cc2F)cc1)NC[C@H](O)COc1ccccc1-c1cscn1.Cl` [Example 251], the “Emax (%) ± SEM” value under setting [2] stood at 33.4 ± 5.7%. As for `CC(C)(Cc1ccc(Oc2ncccc2C(N)=O)cc1)NC[C@H](O)COc1ccccc1-c1ccoc1.Cl` [Example 303], the “Emax (%) ± SEM” value under setting [3] came to 67.9 ± 6.1%.

In the case of `CC(C)(Cc1ccc(Oc2ccc(C#N)cn2)cc1)NC[C@H](O)COc1ccccc1-c1ccno1` [Example 7], the “Emax (%) ± SEM” value under setting [2] is recorded as 48.8 ± 2.5%. For `CCOC(=O)c1ccc(Oc2ccc(CC(C)(C)NC[C@H](O)COc3ccccc3-c3cccs3)cc2)c(F)c1.O=C(O)C(F)(F)F` [Example 184], the “Emax (%) ± SEM” value under setting [2] is listed as 64.1 ± 3.2%. Still for that read-out and setting: with `CC(C)(Cc1ccc(Oc2ncccn2)cc1)NC[C@H](O)COc1ccccc1-c1ccno1.O=C(O)C(F)(F)F` [Example 152] the figure was 45.3 ± 4.2%; with `CCOC(=O)c1cccnc1Oc1ccc(CC(C)(C)NC[C@H](O)COc2ccccc2-c2ccnn2C)cc1` [Example 105], below 10%; with `CC(C)(Cc1ccc(Oc2ccc(C(F)(F)F)cc2Cl)cc1)NC[C@H](O)COc1ccccc1-c1cccs1.O=C(O)C(F)(F)F` [Example 170], 55.0 ± 4.8%. Turning to `CC(C)(Cc1ccc(Oc2ccc(C#N)cn2)cc1)NC[C@H](O)COc1ccccc1-c1ccsc1` [Example 378], the “Emax (%) ± SEM” value under setting [1] came out at 60.2 ± 3.2%. On to `Cc1nc(-c2ccccc2OC[C@@H](O)CNC(C)(C)Cc2ccc(Oc3ncccc3C(N)=O)cc2)[nH]c1C.Cl.Cl` [Example 262], for which the “Emax (%) ± SEM” value under setting [2] is given as 63.6 ± 4.3%. Same read-out and setting: with `CC(C)(Cc1ccc(Oc2ccc(C#N)cn2)cc1)NC[C@H](O)COc1ccccc1-c1ccon1.Cl` [Example 12] the figure was 64.8 ± 6.3%; with `CCOC(=O)c1cccnc1Oc1ccc(CC(C)(C)NC[C@H](O)COc2ccccc2-c2cccs2)cc1.O=C(O)C(F)(F)F` [Example 108], 87.1 ± 11.9%.

In the case of `Cc1ccc(-c2ccccc2OC[C@@H](O)CNC(C)(C)Cc2ccc(Oc3cccnc3C#N)cc2)s1.Cl` [Example 422], under setting [1], the “Emax (%) ± SEM” value stood at 60.1 ± 8.2%.

`CC(C)(Cc1ccc(Oc2ccccc2C#N)cc1)NC[C@H](O)COc1ccccc1-c1cccs1.O=C(O)C(F)(F)F` [Example 286]: the “Emax (%) ± SEM” value under setting [2] is given as 72.1 ± 4.5%. Still for that read-out and setting: to `CC(C)(Cc1ccc(Oc2ccc(C(N)=O)cn2)cc1)NC[C@H](O)COc1ccccc1-c1nncs1.O=C(O)C(=O)O` [Example 42] belongs 43.3 ± 2.7%; to `CC(C)(Cc1ccc(Oc2ccc(C(F)(F)F)cn2)cc1)NC[C@H](O)COc1ccccc1-c1nccs1.O=C(O)C(F)(F)F` [Example 194], 56.6 ± 4.2%. On the same count and under the same terms, to `CC(C)(Cc1ccc(Oc2ccc(S(C)(=O)=O)cc2Cl)cc1)NC[C@H](O)COc1ccccc1-c1ccno1.O=C(O)C(F)(F)F` [Example 183] belongs 53.7 ± 4.3%.

With `CC(C)(Cc1ccc(Oc2ncccc2C#N)cc1)NC[C@H](O)COc1ccccc1-c1ccsc1` [Example 380], the “Emax (%) ± SEM” value under setting [1] is given as 57.4 ± 4.1%. Take `CC(C)(Cc1ccc(Oc2ccncc2)cc1)NC[C@H](O)COc1ccccc1-c1ccno1.O=C(O)C(F)(F)F` [Example 287]: the “Emax (%) ± SEM” value under setting [2] stood at 39.9 ± 4.9%. On the same count and under the same terms, with `CC(C)(Cc1ccc(Oc2ncccc2C#N)cc1)NC[C@H](O)COc1ccccc1-c1ccncn1` [Example 57] the figure was 41.8 ± 5.6%; with `CC(C)(Cc1ccc(Oc2ccc(Cl)nn2)cc1)NC[C@H](O)COc1ccccc1-c1ccno1.O=C(O)C(F)(F)F` [Example 210], 89.1 ± 2.7%. As for `Cc1ccc(-c2ccccc2OC[C@@H](O)CNC(C)(C)Cc2ccc(Oc3ncccc3C(N)=O)cc2)s1.Cl` [Example 417], the “Emax (%) ± SEM” value under setting [1] is recorded as 79.3 ± 2.4%. Take `CC(C)(Cc1ccc(Oc2ncccc2C#N)cc1)NC[C@H](O)COc1ccccc1-c1cccnc1` [Example 390]: the “Emax (%) ± SEM” value under setting [1] is 14.4 ± 1.7%. As for `CC(C)(Cc1ccc(Oc2ncccc2C(N)=O)cc1)NC[C@H](O)COc1cccc(-c2ccnc(N)n2)c1` [Example 91], under setting [2], the “Emax (%) ± SEM” value worked out at 24.9 ± 9.3%. The same measure, in the same setting: to `CC(C)(Cc1ccc(Oc2ccc(C(F)(F)F)cn2)cc1)NC[C@H](O)COc1ccccc1-c1cccs1.O=C(O)C(F)(F)F` [Example 193] belongs 73.5 ± 3.2%.

As for `CC(C)(Cc1ccc(Oc2ncccc2C#N)cc1)NC[C@H](O)COc1ccccc1-c1cc2ccccc2[nH]1` [Example 56], under setting [2], the “Emax (%) ± SEM” value is given as 30.1 ± 2.1%.

As for `CC(C)(Cc1ccc(Oc2ccc(C(N)=O)cn2)cc1)NC[C@H](O)COc1ccccc1-c1nccs1` [Example 17], the “Emax (%) ± SEM” value under setting [2] turned out to be 62.9 ± 2.2%. Same read-out and setting: to `CC(C)(Cc1ccc(Oc2ccc(C(N)=O)cn2)cc1)NC[C@H](O)COc1ccccc1-c1ccnc(N)n1` [Example 33] belongs 26.2 ± 4.3%; to `CC(C)(Cc1ccc(Oc2ccc(Cl)nn2)cc1)NC[C@H](O)COc1ccccc1-c1ccns1.O=C(O)C(F)(F)F` [Example 211], 88.5 ± 9.3%. For `CCOC(=O)c1cccnc1Oc1ccc(CC(C)(C)NC[C@H](O)COc2ccccc2-c2ccn(C)n2)cc1` [Example 106], under setting [2], the “Emax (%) ± SEM” value came out at 53.2 ± 2.4%. Same read-out and setting: to `CC(C)(Cc1ccc(Oc2ncc(Cl)cc2Cl)cc1)NC[C@H](O)COc1ccccc1-c1ccno1.O=C(O)C(F)(F)F` [Example 174] belongs 59.3 ± 3.2%; to `CC(C)(Cc1ccc(Oc2cccnc2C#N)cc1)NC[C@H](O)COc1ccccc1-c1ccns1.O=C(O)C(F)(F)F` [Example 147], 58.9 ± 3.6%; to `COC(=O)c1ccc(Oc2ccc(CC(C)(C)NC[C@H](O)COc3ccccc3-c3cccs3)cc2)c(Cl)c1` [Example 139], 62.2 ± 7.4%. In the case of `CC(C)(Cc1ccc(Oc2ccc(Cl)cn2)cc1)NC[C@H](O)COc1ccccc1-c1nccs1.O=C(O)C(F)(F)F` [Example 168], the “Emax (%) ± SEM” value under setting [2] was 56.1 ± 4.5%. Still for that read-out and setting: with `CC(C)(Cc1ccc(Oc2ccc(C(N)=O)nc2)cc1)NC[C@H](O)COc1ccccc1-n1cccc1.Cl` [Example 266] the figure was 36.7 ± 6.8%. On to `CC(C)(Cc1ccc(Oc2ncccc2C#N)cc1)NC[C@H](O)COc1c(F)cccc1-c1ccc(Cl)s1.Cl` [Example 438], for which, under setting [1], the “Emax (%) ± SEM” value is listed as 64.3 ± 12.4%. Same read-out and setting: to `CC(C)(Cc1ccc(Oc2ccc(S(C)(=O)=O)cc2)cc1)NC[C@H](O)COc1ccccc1-c1ccncc1.Cl.Cl` [Example 377] belongs 33.0 ± 4.2%.

The values above are taken from patent US6730792B2, “β3 adrenergic agonists” (Eli Lilly and Company, priority 2000, dated 2004).
